Measured values reported in the supplement of paper PMC10307832.

Columns and labels:
Assay in all cases: relative viability (nuclei count vs DMSO), 5 days (fraction); higher = more cells survive
[1] = compound: CN(C)C/C=C/C(=O)Nc1cc2c(Nc3ccc(F)c(Cl)c3)ncnc2cc1O[C@H]1CCOC1 [Afatinib] + COc1cccc2cc(-c3nc([C@H]4CC[C@H](C(=O)O)CC4)n4ncnc(N)c34)[nH]c12 [OSI-027] (partner 0.5 µM)
In short: (§1)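 Lung cancer cell lines were seeded in 1536-well plates and dosed by pin tool the next day, with either a single drug or a fixed anchor-drug dose combined with five library-drug doses (not always all listed) spaced in √10 steps. Five days later, one step fixed the cells and stained their nuclei (final 0.05% Triton X-100, 1% formaldehyde, 1 ug/ml Hoechst), and nuclei were counted on 4× images. Relative viability is the nuclei count in treated wells divided by the count in vehicle wells, and each value is the median of duplicate plates.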

[2] = compound: CN(C)C/C=C/C(=O)Nc1cc2c(Nc3ccc(F)c(Cl)c3)ncnc2cc1O[C@H]1CCOC1 [Afatinib] + C[C@@H](Oc1cc(-c2cnn(C3CCNCC3)c2)cnc1N)c1c(Cl)ccc(F)c1Cl [Crizotinib] (partner 1 µM)
In short: as §1

[3] = compound: CN(C)C/C=C/C(=O)Nc1cc2c(Nc3ccc(F)c(Cl)c3)ncnc2cc1O[C@H]1CCOC1 [Afatinib] + N=C(N)NC(=N)NCCc1ccccc1 [Phenformin] (partner 250 µM)
In short: as §1

[4] = compound: CN(C)C/C=C/C(=O)Nc1cc2c(Nc3ccc(F)c(Cl)c3)ncnc2cc1O[C@H]1CCOC1 [Afatinib] + CC(=O)Nc1cccc(-n2c(=O)n(C3CC3)c(=O)c3c(Nc4ccc(I)cc4F)n(C)c(=O)c(C)c32)c1 [Trametinib] (partner 0.02 µM)
In short: as §1

Cell Line	relative viability ([1]; first compound 0.005 µM)	relative viability ([1]; first compound 0.01581 µM)	relative viability ([1]; first compound 0.05 µM)	relative viability ([1]; first compound 0.1581 µM)	relative viability ([1]; first compound 0.5 µM)	relative viability ([2]; first compound 0.005 µM)	relative viability ([2]; first compound 0.01581 µM)	relative viability ([2]; first compound 0.05 µM)	relative viability ([2]; first compound 0.1581 µM)	relative viability ([2]; first compound 0.5 µM)	relative viability ([3]; first compound 0.005 µM)	relative viability ([3]; first compound 0.01581 µM)	relative viability ([3]; first compound 0.05 µM)	relative viability ([3]; first compound 0.1581 µM)	relative viability ([3]; first compound 0.5 µM)	relative viability ([4]; first compound 0.005 µM)	relative viability ([4]; first compound 0.01581 µM)	relative viability ([4]; first compound 0.05 µM)	relative viability ([4]; first compound 0.1581 µM)	relative viability ([4]; first compound 0.5 µM)
201T	0.7	0.642	0.722	0.62	0.653	0.981	0.863	0.959	0.958	1	0.475	0.444	0.43	0.398	0.387	0.688	0.709	0.712	0.673	0.673
A-427	0.426	0.321	0.446	0.519	0.358	0.999	0.963	1.04	0.845	0.855	0.33	0.248	0.371	0.267	0.32	0.702	0.686	0.733	0.812	0.633
ABC-1	0.475	0.315	0.453	0.429	0.405	1.29	0.98	1.3	0.885	1.13	0.245	0.241	0.264	0.239	0.325	–	–	–	–	–
BEN	0.326	0.283	0.297	0.299	0.298	0.929	0.941	1.02	0.908	0.916	0.29	0.261	0.251	0.253	0.286	1.01	1.1	1.11	0.948	1.01
CAL-12T	0.75	0.456	0.392	0.307	0.374	1.06	0.629	0.64	–	0.357	0.57	0.388	0.361	0.244	0.407	0.278	0.273	0.286	0.247	0.261
COR-L23	0.941	0.829	0.755	0.739	0.78	0.803	0.583	0.634	0.603	0.75	0.479	0.446	0.449	0.437	0.45	0.625	0.648	0.723	0.582	0.608
COR-L 105	0.346	0.252	0.265	0.245	0.27	0.618	0.285	0.304	0.221	0.216	0.294	0.22	0.211	0.203	0.249	0.38	0.315	0.379	0.34	0.352
Calu-6	–	–	–	–	–	0.861	0.654	0.869	0.8	0.755	–	–	–	–	–	–	–	–	–	–
ChaGo-K-1	0.625	0.516	0.515	0.585	0.469	1.27	1.14	1.17	1.16	1.17	0.474	0.466	0.444	0.45	0.431	0.922	0.911	0.885	0.866	0.813
EKVX	0.565	0.509	0.438	0.149	0.231	0.892	0.708	0.551	0.268	0.159	0.218	0.222	0.215	0.129	0.197	0.255	0.246	0.216	0.16	0.162
EMC-BAC-2	0.371	0.355	0.418	0.378	0.352	0.816	0.731	0.698	0.693	0.654	0.502	0.512	0.563	0.462	0.476	0.945	0.888	0.823	0.873	0.872
EPLC-272H	0.279	0.203	0.231	0.213	0.211	0.698	0.72	0.842	0.739	0.575	0.35	0.272	0.231	0.24	0.264	0.251	0.265	–	0.229	0.27
H3255	0.239	0.231	0.214	0.209	0.208	0.225	0.191	0.265	0.166	0.226	0.228	0.23	0.203	0.202	0.228	0.297	0.208	0.288	0.195	0.237
HARA	0.365	0.228	0.163	0.234	0.293	0.884	1.04	0.763	0.494	0.783	0.391	0.27	0.327	0.376	0.375	0.417	–	0.38	0.311	0.38
HCC-15	0.708	0.753	0.733	0.724	0.547	0.842	0.904	0.804	0.837	0.866	0.487	0.487	0.488	0.47	0.517	0.338	0.393	0.325	0.35	0.344
HCC-44	0.588	0.446	0.521	0.542	0.431	0.902	0.866	0.786	0.782	0.847	0.233	0.184	0.232	0.395	0.239	1.04	1.09	1.01	1.04	1.12
HCC-78	0.443	0.326	0.331	0.317	0.283	0.308	0.279	0.245	0.252	0.221	0.892	0.515	0.593	0.648	0.559	0.788	0.677	0.723	0.559	0.698
